PMC8196714, “Design, Radiosynthesis and Preliminary Biological Evaluation in Mice of a Brain-Penetrant ^18F-Labelled σ2 Receptor Ligand” (International Journal of Molecular Sciences, 2021)

Columns and labels:
guinea pig σ1 receptors = guinea pig σ1 receptors (Cavia porcellus, UniProt Q60492); assay: σ1 receptor affinity, competitive binding with [3H]-(+)-pentazocine (WWU); conditions: determined at WWU
Source text: To decide which of the nine compounds would be suitable for subsequent radiofluorination, we determined the affinity towards the σ1 receptor as the most relevant off-target protein. […] To finally select the best derivative for radiofluorination, we calculated the σ2:σ1 selectivity values and identified RM273 (41) as the most suitable one with a ratio of about 400.

rat VAChT = target: T1, rat VAChT (Rattus norvegicus, UniProt Q62666); assay: Displacement of [3H]vesamicol in membrane homogenates of PC12 cells stably expressing rat VAChT; assay type: binding
T1 construct: expressed in transfected cells; host or cells: PC12 cells
T1 sequence (Q62666 1-530): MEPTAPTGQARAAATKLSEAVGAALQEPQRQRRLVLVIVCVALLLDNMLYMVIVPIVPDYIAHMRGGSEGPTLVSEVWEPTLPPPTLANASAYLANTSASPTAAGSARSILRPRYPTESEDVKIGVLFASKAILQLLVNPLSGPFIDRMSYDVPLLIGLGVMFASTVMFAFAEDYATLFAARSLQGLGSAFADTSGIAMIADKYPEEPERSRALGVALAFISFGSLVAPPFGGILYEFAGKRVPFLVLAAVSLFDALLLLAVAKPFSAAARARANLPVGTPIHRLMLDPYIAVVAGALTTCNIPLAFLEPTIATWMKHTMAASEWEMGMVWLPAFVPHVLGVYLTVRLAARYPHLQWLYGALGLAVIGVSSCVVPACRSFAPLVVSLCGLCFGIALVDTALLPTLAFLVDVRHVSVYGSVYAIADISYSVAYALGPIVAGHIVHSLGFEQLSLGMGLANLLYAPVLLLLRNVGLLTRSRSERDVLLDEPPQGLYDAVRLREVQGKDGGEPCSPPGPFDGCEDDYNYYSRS
Protocol: Because ligands targeting σ receptors may be impaired by off-target binding towards the vesicular acetylcholine transporter (VAChT), we determined in the next step the affinity of RM273 towards this protein.
(§1) Binding affinity experiments to assess the Ki values of test compounds towards rat σ2 receptors, human σ1 receptors, and rat VAChT were performed according to protocols previously published by our group. The same protocol was used to determine the KD and Bmax values of RM273 towards σ2 receptors expressed in F98 cells by homologous competition analyzing the displacement of [^18F]RM273 by RM273.

σ2 receptor [1] = target: T2, σ2 receptor (Rattus norvegicus, UniProt Q5U3Y7); assay: σ2 receptor affinity, inhibition of [3H]DTG binding in rat liver membrane homogenates; design: preparations of membrane homogenates obtained from rat liver; from tissue; host or cells: rat liver; conditions: for Ki: [3H]DTG, rat liver membrane homogenates
T2 sequence (Q5U3Y7 1-176): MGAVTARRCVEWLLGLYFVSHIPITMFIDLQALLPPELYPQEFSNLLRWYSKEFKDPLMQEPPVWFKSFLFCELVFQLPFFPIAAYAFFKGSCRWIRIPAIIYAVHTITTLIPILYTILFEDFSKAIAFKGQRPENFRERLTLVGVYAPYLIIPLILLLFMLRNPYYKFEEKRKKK
Protocol: Initially, we assessed the affinity of all derivatives towards the target protein and investigated the inhibition of the binding of [^3H]DTG in preparations of membrane homogenates obtained from rat liver, which is known to express high levels of σ2 receptors.
as §1

human σ1 receptors = human σ1 receptors (Homo sapiens, UniProt Q99720); assay: σ1 receptor affinity, competitive binding with [3H]-(+)-pentazocine (HZDR Leipzig); conditions: determined at HZDR Leipzig
Protocol: To decide which of the nine compounds would be suitable for subsequent radiofluorination, we determined the affinity towards the σ1 receptor as the most relevant off-target protein.
as §1

σ2 receptor [2] = target: T2, σ2 receptor; assay: In vitro autoradiography on rat brain cryosections (healthy and orthotopic F98 glioblastoma); assay type: binding; design: from tissue; host or cells: rat brain cryosections (SPRD healthy; Fisher F344 with orthotopic F98 glioblastoma); conditions: autoradiography, co-incubation with competitor at 10^−6 M
Source text: Initially, we investigated the binding of [^18F]RM273 on rat brain slices by autoradiography to compare the distribution pattern with that of established σ2 receptor ligands and to examine the target specificity. The highest binding was found in the cortical areas and hippocampal structures. […] Accordingly, we proceeded to investigate, in a rat glioblastoma model, the potential suitability of [^18F]RM273 for molecular characterization of cancer. At first, homologous competition studies using membrane homogenates of the rat glioma cell line F98 were performed to determine the σ2 receptor binding parameters of [^18F]RM273 cells (Figure 3).
We subsequently investigated the binding parameters of [^18F]RM273 by in vitro autoradiography using cryosections of rat brains obtained three weeks after stereotactic implantation of F98 rat glioblastoma cells into the left striatum. Initially, we performed a homologous displacement study to directly compare the binding sites of the new radioligand in a healthy brain and a brain tumor. The inhibition curves presented in Figure 3 indicate binding of [^18F]RM273 to single binding sites in both brain regions. […] Further supporting the assumption of a tumor-specific overexpression of σ2 receptors, a remarkably high density of binding sites of [^18F]RM273 in the F98 tumor tissue was observed (Figure 4). Compared to the healthy tissue (contralateral side), about three times more specific binding sites of [^18F]RM273 were estimated for the tumor region (32 × 10^−9 mol/L vs. 94 × 10^−9 mol/L at 1.5 nM [^18F]RM273).
In vitro autoradiography was performed using cryosections of brains of a healthy rat (SPRD, female, 250 g; Medizinisch-Experimentelles Zentrum, Universität Leipzig, Leipzig, Germany) and brains obtained from rats (Fisher F344/HanZtmRj, male, ≈260 g; Janvier Labs, Le Genest-Saint-Isle, France) 23 days after stereotactic implantation of 5 × 10^4 F98 cells in the […] striatum (n = 2).
Immediately after isolation, the brains were frozen by immersion in isopentane at −25 °C. Cryosections of 12 μm (Microm HM560 cryostat, Thermo Scientific, Schwerte, Germany) were mounted on microscopic glass slides, dried at room temperature, and stored at −25 °C. For the experiment, the slices were dried at room temperature under a stream of cold air before pre-incubation in PBS, pH 7.4, at room temperature for 15 min. […] Co-incubation with serial dilutions of RM273 (10^−10–10^−6 M) was performed to determine an inhibition curve. After 60 min, the incubation at room temperature was terminated by decanting and washing the slides by two consecutive incubations in ice-cold washing buffer (50 mM TRIS-HCl, pH 7.4 at 4 °C) for two min each, followed by dipping in ice-cold demineralized water for 5 sec and drying under a stream of cold air. In parallel, for subsequent quantification of the data obtained from the homologous competition experiment, defined volumes, and thus defined activities of the radioligand solution, were pipetted onto a microscopic glass slide (0.5–3 μL = 0.0355–0.213 kBq) and dried. Afterwards the tissue samples along with the standards were exposed to an ^18F-sensitive phosphor screen (ABC) for two hours. Image acquisition was performed using a phosphorimager (HD-CR 35; DÜRR NDT GmbH & Co. KG, Bietigheim-Bissingen, Germany). Analysis of the digitized images was performed by image analysis software (AIDA; Elysia-raytest GmbH, Straubenhardt, Germany).
Irregular regions of interest (ROI) were drawn on the standard spots and the different brain regions, which were confirmed by Nissl staining of the identical brain sections. Optical density measured in each ROI was expressed as quantum levels per unit area (QL/pixel) with a pixel size of 12.5 μm^2. From the calibration curve obtained from the standards by plotting QL vs. activity, the QL values of the ROIs were converted to activity values followed by conversion to chemical concentration of RM273 based on the molar activity of [^18F]RM273. […]

[3] = design: method as in PMID 17579383; conditions: 5 min p.i. ref 25; cited from earlier work
[4] = Ki σ1 from guinea pig σ1 receptors

Sequence of guinea pig σ1 receptors (Q60492 whole entry): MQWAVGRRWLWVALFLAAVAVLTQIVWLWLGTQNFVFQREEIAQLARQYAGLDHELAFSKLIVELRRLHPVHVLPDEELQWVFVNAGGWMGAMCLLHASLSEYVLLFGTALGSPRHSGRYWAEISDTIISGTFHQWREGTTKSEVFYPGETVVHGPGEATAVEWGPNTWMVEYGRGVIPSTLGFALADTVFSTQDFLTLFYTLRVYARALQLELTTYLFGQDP
Sequence of human σ1 receptors (Q99720 whole entry): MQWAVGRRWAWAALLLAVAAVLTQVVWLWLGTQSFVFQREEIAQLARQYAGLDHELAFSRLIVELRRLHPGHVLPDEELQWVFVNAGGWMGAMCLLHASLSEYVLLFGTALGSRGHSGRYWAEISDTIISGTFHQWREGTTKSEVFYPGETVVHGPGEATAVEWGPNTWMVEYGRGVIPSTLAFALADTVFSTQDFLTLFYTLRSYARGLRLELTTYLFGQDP

SMILES	Ki (guinea pig σ1 receptors) [nM]	Selectivity (Ki σ1/Ki σ2) (σ2 receptor [1]; [4])	Ki (σ2 receptor [1]) [nM]	Ki (human σ1 receptors) [nM]	Selectivity (Ki σ1/Ki σ2) (σ2 receptor [1]; Ki σ1 from human σ1 receptors)	other results
COc1cc2c(cc1OC)CN(CCCCn1ccc3ccc(F)nc31)CC2 [41 (RM273), 2-(4-(6-Fluoro-1H-pyrrolo[2,3-b]pyridin-1-yl)butyl)-6,7-dimethoxy-1,2,3,4-tetrahydroisoquinoline]	691	432	1.6			Ki (rat VAChT): > 2000 nM; Selectivity (Ki σ1/Ki σ2) (σ2 receptor [1]; Ki σ1 from guinea pig σ1 receptors, listed as RM273 (41)): about 400
COc1cc2c(cc1OC)CN(CCCCn1ccc3ccnc(F)c31)CC2 [42 (RM297), 2-[4-(7-Fluor-1H-pyrrolo[2,3-c]pyridin-1-yl)butyl]-6,7-dimethoxy-1,2,3,4-tetrahydroisochinolin]	916	339	2.7			
COc1cc2c(cc1OC)CN(CCCCn1ccc3c(F)cccc31)CC2 [Compound 34, 2-[4-(4-Fluoro-1H-indol-1-yl)butyl]-6,7-dimethoxy-1,2,3,4-tetrahydroisoquinoline]			14	21	1.5	
COc1cc2c(cc1OC)CN(CCCCn1ccc3cc(F)ccc31)CC2 [Compound 35, 2-(4-(5-Fluoro-1H-indol-1-yl)butyl)-6,7-dimethoxy-1,2,3,4-tetrahydroisoquinoline]			12	116	9.7	
COc1cc2c(cc1OC)CN(CCCCn1ccc3ccc(F)cc31)CC2 [Compound 36, 2-(4-(6-Fluoro-1H-indol-1-yl)butyl)-6,7-dimethoxy-1,2,3,4-tetrahydroisoquinoline]			7.1	46	6.5	
COc1cc2c(cc1OC)CN(CCCCn1ccc3cccc(F)c31)CC2 [Compound 37, 2-(4-(7-Fluoro-1H-indol-1-yl)butyl)-6,7-dimethoxy-1,2,3,4-tetrahydroisoquinoline]			10	80	8	
COc1cccc2c1CCCC2CCCN1CCN(C2CCCCC2)CC1 (centres unmarked) [PB28, reference compound]						displacement of [18F]RM273 binding on rat brain slices (σ2 receptor [2]): completely displaceable
Fc1ccc(-n2cc(CCCCN3CCC4(CC3)OCc3ccccc34)c3ccccc32)cc1 [Siramesine, siramesine, reference compound]						displacement of [18F]RM273 binding on rat brain slices (σ2 receptor [2]): completely displaceable
COc1cc2c(cc1OC)CN(CCCCNC(=O)c1cc(C)ccc1OCC[18F])CC2 [[^18F]ISO-I]						brain uptake [3]: 0.76 % ID/g

Now from value to molecule, other results behind:

Ki (guinea pig σ1 receptors) [nM]	Selectivity (Ki σ1/Ki σ2) (σ2 receptor [1]; [4])	Ki (σ2 receptor [1]) [nM]	Ki (human σ1 receptors) [nM]	Selectivity (Ki σ1/Ki σ2) (σ2 receptor [1]; Ki σ1 from human σ1 receptors)	SMILES	other results
80	14	5.5			COc1cc2c(cc1OC)CN(CCCCn1ccc3c(F)nccc31)CC2 [Compound 38, 2-[4-(4-Fluor-1H-pyrrolo[3,2-c]pyridin-1-yl)butyl]-6,7-dimethoxy-1,2,3,4-tetrahydroisochinolin]	
122	32	3.8			COc1cc2c(cc1OC)CN(CCCCn1ccc3nc(F)ccc31)CC2 [Compound 39, 2-[4-(5-Fluor-1H-pyrrolo[3,2-b]pyridin-1-yl)butyl]-6,7-dimethoxy-1,2,3,4-tetrahydroisochinolin]	
85	85	1			COc1cc2c(cc1OC)CN(CCCCn1ccc3cc(F)ncc31)CC2 [Compound 40, 2-[4-(5-Fluor-1H-pyrrolo[2,3-c]pyridin-1-yl)butyl]-6,7-dimethoxy-1,2,3,4-tetrahydroisochinolin]	
